Assay results from patent US12370183B2, “Compositions and methods for treating malaria” (Rutgers, The State University of New Jersey, priority 2020, dated 2025).
Like-named read-outs stand apart in the source and are kept apart here.

Columns and labels:
[1] = tested on: 3D7 strain of Plasmodium falciparum; assay: Potency in the 3D7 strain of Plasmodium falciparum (EC50); type: cell-based; details: Plasmodium falciparum
[2] = Solubility of the desbenzo analogue compared with 66; type: physicochemical
Experimental: For example, the melting point of 66 is 220° C. and the desbenzo analogue is 83.5° C.

in vitro = type: cell-based; details: human
Text: The present invention relates to methods of treating malaria with tetrahydrobenzonaphtyridine carboxanilide (TBN) derivatives and related pyrrolinones and hydrolysis products thereof. These compounds are active against Plasmodium falciparum strains that are resistant to multiple drugs currently on the market. The present invention further relates to novel compounds and pharmaceutical compositions comprising such compounds. The compounds have been synthesized and tested for their potency in the 3D7 strain of Plasmodium falciparum. Their cytotoxicity was also tested in the BJ human fibroblast line. No compounds show significant cytotoxicity.
A high-throughput screen performed against the Plasmodium parasite. About 8,000 compounds were screened. Each hit was tested against resistant P. falciparum variants K1, V1S, D10DD, ATP4 1247, and C2B. Potency against these assays assured that the chemotype acts through a mechanism distinct from that of halofantrine, chloroquine, mefloquine, pyrimethamine, proguanil, atovaquone, and (+)SJ733. The toxicity of the compounds was also measured by testing their lethality against a BJ cell line (human fibroblasts). No TBNs were toxic. A structure activity investigation was performed in order to improve the EC50 of the TBNs to the single-digit nanomolar range, as well as to increase the water solubility.

[3] = tested on: resistant P. falciparum variant K1; assay: Potency against resistant P. falciparum variant K1 (EC50); type: cell-based; details: Plasmodium falciparum, K1, read-out: K1 EC50 (μM)
[4] = 3D7, read-out: 3D7 Mean EC50 (μM)

Compound | EC50 ([1]; 3D7) [µM] | solubility, in words [2] | EC50 [1, 4] [µM] | EC50 (in vitro) [nM] | EC50 [3] [µM]
O=C(Nc1ccc(F)c(F)c1)c1ccnc2c1CN(Cc1ccccc1)CC2 [Compound 68, 6-Benzyl-N-(3,4-difluorophenyl)-5,6,7,8-tetrahydro-1,6-naphthyridine-4-carboxamide] | 3.48 | increased solubility versus 66 | – | – | –
N#CCCN1CCc2nc3ccccc3c(C(=O)Nc3ccc(F)c(F)c3)c2C1 [Compound 113, 2-(2-Cyanoethyl)-N-(3,4-difluorophenyl)-1,2,3,4-tetrahydrobenzo[b][1,6]naphthyridine-10-carboxamide] | – | – | 1.62 ± 1.25 | > 23300 | 2.05 ± 0.256
CN(C)C(=O)CCN1CCc2nc3ccccc3c(C(=O)Nc3ccc(F)c(F)c3)c2C1 [Compound 110, N-(3,4-Difluorophenyl)-2-(3-(dimethylamino)-3-oxopropyl)-1,2,3,4-tetrahydrobenzo[b][1,6]naphthyridine-10-carboxamide] | – | – | 0.888 ± 0.459 | > 23300 | 0.658
CC(c1ccccn1)N1CCc2nc3ccccc3c(C(=O)Nc3ccc(F)c(F)c3)c2C1 (centres unmarked) [Compound 90, N-(3,4-Difluorophenyl)-2-(1-(pyridin-2-yl)ethyl)-1,2,3,4-tetrahydrobenzo[b][1,6]naphthyridine-10-carboxamide] | – | – | 0.0603 ± 0.0234 | > 11700 | 0.0439
